Data taken from patent publication US10815230B2, “Casein kinase 1 delta inhibitor” (ELECTROPHORETICS LIMITED, priority 2015, dated 2020).

What was measured:
Assay in all cases: Kinase selectivity, % remaining activity
Type in all cases: biochemical
Settings in all cases: 10 μM compound, 10 μM ATP, duplicate
ABL2/ARG = ABL2/ARG (Homo sapiens, UniProt P42684)
Description: (§1) A two-tier strategy to determine the selectivity of compound A was applied: first, the compound was tested at a single concentration (in duplicate) to determine the %-remaining activity of the target kinase. Subsequently, the IC50 of compound A and comparative compounds for casein kinase 1 delta were determined.
(§2) Compounds were tested in single dose duplicate mode at a concentration of 10 μM (in DMSO) and reactions were carried out at 10 μM ATP, Table 3 reports the % of remaining activity (relative to DMSO).

CDK5/p25 = CDK5/p25 (Homo sapiens, UniProt Q00535)
Description: as §1, §2

CK1e = CK1e (Homo sapiens, UniProt P49674)
Chain of CK1e (P49674 whole entry): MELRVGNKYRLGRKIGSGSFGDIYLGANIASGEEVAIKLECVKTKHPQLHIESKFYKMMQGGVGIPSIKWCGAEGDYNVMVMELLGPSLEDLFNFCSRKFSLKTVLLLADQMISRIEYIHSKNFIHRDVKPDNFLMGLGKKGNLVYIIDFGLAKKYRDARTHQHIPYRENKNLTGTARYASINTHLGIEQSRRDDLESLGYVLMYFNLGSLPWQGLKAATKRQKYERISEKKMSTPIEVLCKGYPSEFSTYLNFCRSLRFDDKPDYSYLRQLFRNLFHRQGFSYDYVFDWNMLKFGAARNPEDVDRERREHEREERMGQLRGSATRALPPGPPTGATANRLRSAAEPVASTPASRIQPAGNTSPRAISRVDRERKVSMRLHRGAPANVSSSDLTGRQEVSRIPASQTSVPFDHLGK
Description: as §1, §2

CK1g1 = CK1g1 (Homo sapiens, UniProt Q9HCP0)
Description: as §1, §2

CK1g3 = CK1g3 (Homo sapiens, UniProt Q9Y6M4)
Description: as §1, §2

CLK2 = CLK2 (Homo sapiens, UniProt P49760)
Description: as §1, §2

DAPK1 = DAPK1 (Homo sapiens, UniProt P53355)
Chain of DAPK1 (P53355 whole entry): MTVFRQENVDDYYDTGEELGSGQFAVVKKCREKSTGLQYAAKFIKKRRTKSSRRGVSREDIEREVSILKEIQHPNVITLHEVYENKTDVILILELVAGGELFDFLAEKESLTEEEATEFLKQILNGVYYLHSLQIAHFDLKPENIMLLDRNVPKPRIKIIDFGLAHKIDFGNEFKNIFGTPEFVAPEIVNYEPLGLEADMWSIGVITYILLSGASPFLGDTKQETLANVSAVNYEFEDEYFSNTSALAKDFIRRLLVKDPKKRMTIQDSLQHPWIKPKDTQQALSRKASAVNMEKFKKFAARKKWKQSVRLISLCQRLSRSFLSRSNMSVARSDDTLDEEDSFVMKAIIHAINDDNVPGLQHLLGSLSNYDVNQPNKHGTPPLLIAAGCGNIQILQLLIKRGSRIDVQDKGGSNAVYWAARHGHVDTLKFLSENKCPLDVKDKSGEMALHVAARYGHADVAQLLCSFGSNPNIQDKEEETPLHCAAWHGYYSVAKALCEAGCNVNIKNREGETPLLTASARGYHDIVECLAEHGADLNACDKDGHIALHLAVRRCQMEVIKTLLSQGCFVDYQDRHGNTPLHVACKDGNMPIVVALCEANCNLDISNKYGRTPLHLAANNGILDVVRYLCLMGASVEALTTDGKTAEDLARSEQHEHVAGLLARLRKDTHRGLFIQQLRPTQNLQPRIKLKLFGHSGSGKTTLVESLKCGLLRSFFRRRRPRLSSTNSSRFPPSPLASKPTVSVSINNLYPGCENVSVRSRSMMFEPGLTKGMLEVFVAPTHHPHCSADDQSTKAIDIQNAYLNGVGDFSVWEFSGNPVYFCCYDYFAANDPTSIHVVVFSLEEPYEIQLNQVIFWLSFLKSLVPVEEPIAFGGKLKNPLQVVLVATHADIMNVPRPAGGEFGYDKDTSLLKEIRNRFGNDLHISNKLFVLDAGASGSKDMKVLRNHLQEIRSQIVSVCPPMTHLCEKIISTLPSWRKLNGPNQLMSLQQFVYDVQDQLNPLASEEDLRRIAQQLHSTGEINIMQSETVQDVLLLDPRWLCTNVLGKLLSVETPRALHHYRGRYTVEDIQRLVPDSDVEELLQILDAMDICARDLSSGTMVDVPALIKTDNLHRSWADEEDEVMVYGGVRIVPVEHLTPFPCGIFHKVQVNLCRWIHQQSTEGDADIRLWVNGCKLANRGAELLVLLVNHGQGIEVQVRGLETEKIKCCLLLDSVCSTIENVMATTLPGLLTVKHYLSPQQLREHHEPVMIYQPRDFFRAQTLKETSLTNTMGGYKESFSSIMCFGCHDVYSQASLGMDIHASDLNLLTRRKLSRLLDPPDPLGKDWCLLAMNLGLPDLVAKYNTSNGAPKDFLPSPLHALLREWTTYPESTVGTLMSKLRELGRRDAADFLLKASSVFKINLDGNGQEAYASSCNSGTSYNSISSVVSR
Description: as §1, §2

EGFR = EGFR (Homo sapiens, UniProt P00533)
Description: as §1, §2

EPHA2 = EPHA2 (Homo sapiens, UniProt P29317)
Chain of EPHA2 (P29317 24-976): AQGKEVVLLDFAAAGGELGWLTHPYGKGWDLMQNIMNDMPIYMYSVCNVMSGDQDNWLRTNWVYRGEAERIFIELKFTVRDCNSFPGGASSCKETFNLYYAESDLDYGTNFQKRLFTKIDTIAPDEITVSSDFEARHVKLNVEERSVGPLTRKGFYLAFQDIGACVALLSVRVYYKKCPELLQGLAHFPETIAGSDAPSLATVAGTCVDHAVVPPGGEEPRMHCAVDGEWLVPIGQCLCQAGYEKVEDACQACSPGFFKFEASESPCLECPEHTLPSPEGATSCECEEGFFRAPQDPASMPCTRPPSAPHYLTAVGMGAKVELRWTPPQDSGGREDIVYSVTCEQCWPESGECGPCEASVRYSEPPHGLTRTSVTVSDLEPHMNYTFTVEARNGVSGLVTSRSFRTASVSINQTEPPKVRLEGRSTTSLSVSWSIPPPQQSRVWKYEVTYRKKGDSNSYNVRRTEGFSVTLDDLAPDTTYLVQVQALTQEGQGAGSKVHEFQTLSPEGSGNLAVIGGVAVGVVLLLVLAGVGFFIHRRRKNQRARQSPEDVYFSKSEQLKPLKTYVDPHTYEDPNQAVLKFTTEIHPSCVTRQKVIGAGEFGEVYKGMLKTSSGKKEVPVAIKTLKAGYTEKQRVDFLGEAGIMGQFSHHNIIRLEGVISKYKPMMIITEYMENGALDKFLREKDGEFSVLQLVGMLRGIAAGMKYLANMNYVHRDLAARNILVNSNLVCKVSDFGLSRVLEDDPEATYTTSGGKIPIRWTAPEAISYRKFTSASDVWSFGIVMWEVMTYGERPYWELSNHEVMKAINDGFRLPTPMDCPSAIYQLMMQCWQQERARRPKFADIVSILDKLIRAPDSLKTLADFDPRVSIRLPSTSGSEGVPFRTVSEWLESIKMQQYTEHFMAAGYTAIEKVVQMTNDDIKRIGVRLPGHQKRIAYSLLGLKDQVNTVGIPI
Description: as §1, §2

FGFR1 = FGFR1 (Homo sapiens, UniProt P11362)
Description: as §1, §2

GSK3B = GSK3B (Homo sapiens, UniProt P49841)
Description: as §1, §2

JNK2 = JNK2 (Homo sapiens, UniProt P45984)
Description: as §1, §2

KDR/VEGFR2 = KDR/VEGFR2 (Homo sapiens, UniProt P35968)
Description: as §1, §2

LCK = LCK (Homo sapiens, UniProt P06239)
Description: as §1, §2

P38a/MAPK14 = P38a/MAPK14 (Homo sapiens, UniProt Q16539)
Description: as §1, §2

PDK1/PDPK1 = biological target: T1, PDK1/PDPK1 (Homo sapiens, UniProt O15530)
T1 sequence (O15530 1-556): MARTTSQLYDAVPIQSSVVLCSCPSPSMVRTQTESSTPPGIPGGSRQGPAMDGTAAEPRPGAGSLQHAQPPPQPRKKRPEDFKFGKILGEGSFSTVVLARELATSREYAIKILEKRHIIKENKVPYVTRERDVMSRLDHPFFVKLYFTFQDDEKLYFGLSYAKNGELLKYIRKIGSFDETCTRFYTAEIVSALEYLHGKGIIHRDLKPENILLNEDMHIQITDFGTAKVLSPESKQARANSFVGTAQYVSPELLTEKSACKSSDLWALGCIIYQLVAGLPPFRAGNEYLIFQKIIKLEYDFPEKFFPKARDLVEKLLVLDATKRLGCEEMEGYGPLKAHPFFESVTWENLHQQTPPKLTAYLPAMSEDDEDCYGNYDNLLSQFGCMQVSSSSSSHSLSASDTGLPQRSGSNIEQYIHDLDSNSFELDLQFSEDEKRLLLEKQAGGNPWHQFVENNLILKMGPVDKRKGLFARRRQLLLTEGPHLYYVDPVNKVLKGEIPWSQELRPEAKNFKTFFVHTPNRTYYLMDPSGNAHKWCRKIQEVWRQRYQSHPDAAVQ
Description: as §1, §2

PIM3 = PIM3 (Homo sapiens, UniProt Q86V86)
Description: as §1, §2

PKA = PKA (Homo sapiens, UniProt P17612)
Description: as §1, §2

PKCb2 = PKCb2 (Homo sapiens, UniProt P05771)
Description: as §1, §2

RIPK2 = RIPK2 (Homo sapiens, UniProt O43353)
Description: as §1, §2

ROCK1 = ROCK1 (Homo sapiens, UniProt Q13464)
Description: as §1, §2

TNIK = TNIK (Homo sapiens, UniProt Q9UKE5)
Chain of TNIK (Q9UKE5 whole entry): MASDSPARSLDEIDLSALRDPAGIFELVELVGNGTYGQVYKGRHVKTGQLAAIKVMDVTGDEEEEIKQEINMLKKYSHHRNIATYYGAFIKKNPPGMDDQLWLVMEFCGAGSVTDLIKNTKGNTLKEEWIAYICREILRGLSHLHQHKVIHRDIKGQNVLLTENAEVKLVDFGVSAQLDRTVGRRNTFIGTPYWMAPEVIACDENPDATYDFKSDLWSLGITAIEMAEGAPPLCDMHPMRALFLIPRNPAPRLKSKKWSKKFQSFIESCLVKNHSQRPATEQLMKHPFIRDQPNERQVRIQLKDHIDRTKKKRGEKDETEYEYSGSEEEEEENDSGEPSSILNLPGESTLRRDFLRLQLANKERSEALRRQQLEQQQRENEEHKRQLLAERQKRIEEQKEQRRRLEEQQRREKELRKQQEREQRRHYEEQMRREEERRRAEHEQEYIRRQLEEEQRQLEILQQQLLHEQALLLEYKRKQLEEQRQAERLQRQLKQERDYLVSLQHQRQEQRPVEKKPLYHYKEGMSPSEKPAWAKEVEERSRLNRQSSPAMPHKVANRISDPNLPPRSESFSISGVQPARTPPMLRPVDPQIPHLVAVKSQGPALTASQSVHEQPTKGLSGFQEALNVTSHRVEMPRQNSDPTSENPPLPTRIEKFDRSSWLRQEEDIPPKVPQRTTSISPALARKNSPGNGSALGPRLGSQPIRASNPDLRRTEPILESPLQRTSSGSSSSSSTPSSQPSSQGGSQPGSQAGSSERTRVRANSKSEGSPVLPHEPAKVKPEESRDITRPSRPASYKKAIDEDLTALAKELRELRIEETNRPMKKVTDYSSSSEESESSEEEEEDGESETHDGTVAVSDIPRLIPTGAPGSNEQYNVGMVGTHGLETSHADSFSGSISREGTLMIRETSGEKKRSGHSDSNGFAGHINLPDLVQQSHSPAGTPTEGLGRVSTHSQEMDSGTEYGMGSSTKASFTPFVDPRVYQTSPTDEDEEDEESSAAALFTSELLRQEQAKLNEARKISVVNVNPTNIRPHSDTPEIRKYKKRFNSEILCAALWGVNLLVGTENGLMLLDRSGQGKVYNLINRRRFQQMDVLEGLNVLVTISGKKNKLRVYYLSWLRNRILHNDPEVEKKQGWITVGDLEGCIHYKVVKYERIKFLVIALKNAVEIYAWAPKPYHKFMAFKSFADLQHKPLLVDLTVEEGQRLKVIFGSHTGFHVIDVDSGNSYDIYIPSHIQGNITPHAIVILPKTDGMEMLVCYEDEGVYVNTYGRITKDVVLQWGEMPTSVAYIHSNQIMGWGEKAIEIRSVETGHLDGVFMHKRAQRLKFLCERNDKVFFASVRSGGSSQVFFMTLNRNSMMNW
Description: as §1, §2

YES/YES1 = YES/YES1 (Homo sapiens, UniProt P07947)
Description: as §1, §2

c-Src = c-Src (Homo sapiens, UniProt P12931)
Chain of c-Src (P12931 whole entry, species assumed): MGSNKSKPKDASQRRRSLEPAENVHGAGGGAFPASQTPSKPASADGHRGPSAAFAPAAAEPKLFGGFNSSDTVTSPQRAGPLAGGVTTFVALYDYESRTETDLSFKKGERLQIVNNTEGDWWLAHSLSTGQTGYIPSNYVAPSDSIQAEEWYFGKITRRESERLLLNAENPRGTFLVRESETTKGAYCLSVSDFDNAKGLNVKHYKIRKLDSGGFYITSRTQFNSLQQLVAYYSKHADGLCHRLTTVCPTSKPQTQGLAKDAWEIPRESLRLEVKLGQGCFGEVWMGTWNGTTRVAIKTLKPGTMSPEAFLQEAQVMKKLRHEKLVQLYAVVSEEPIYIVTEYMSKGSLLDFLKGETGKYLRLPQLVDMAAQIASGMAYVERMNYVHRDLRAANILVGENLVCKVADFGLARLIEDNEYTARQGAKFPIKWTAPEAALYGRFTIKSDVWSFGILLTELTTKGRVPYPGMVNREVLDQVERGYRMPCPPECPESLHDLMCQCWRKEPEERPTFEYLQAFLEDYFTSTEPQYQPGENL
Description: as §1, §2

[1] = read-out: % of remaining activity (relative to DMSO)

% of remaining activity (relative to DMSO) (ABL2/ARG; listed as Cmp 315): 89.19%
remaining activity at 10 µM (ABL2/ARG; [1]): 83.4%
% of remaining activity (relative to DMSO) (CDK5/p25; listed as Cmp 315): 94.86%
remaining activity at 10 µM (CDK5/p25; [1]): 96.1%
% of remaining activity (relative to DMSO) (CK1e; listed as Cmp 315): 6.51%
remaining activity at 10 µM (CK1e; [1]): 5.45%
% of remaining activity (relative to DMSO) (CK1g1; listed as Cmp 315): 73.02%
remaining activity at 10 µM (CK1g1; [1]): 71.9%
% of remaining activity (relative to DMSO) (CK1g3; listed as Cmp 315): 2.99%
remaining activity at 10 µM (CK1g3; [1]): 2.9%
% of remaining activity (relative to DMSO) (CLK2; listed as Cmp 315): 48.99%
remaining activity at 10 µM (CLK2; [1]): 50.6%
% of remaining activity (relative to DMSO) (DAPK1; listed as Cmp 315): 90.84%
remaining activity at 10 µM (DAPK1; [1]): 96%
% of remaining activity (relative to DMSO) (EGFR; listed as Cmp 315): 117.99%
remaining activity at 10 µM (EGFR; [1]): 111%
% of remaining activity (relative to DMSO) (EPHA2; listed as Cmp 315): 96.60%
remaining activity at 10 µM (EPHA2; [1]): 99%
% of remaining activity (relative to DMSO) (FGFR1; listed as Cmp 315): 101.65%
remaining activity at 10 µM (FGFR1; [1]): 102%
% of remaining activity (relative to DMSO) (GSK3B; listed as Cmp 315): 115.26%
remaining activity at 10 µM (GSK3B; [1]): 120%
% of remaining activity (relative to DMSO) (JNK2; listed as Cmp 315): 98.70%
remaining activity at 10 µM (JNK2; [1]): 99.4%
% of remaining activity (relative to DMSO) (KDR/VEGFR2; listed as Cmp 315): 107.86%
remaining activity at 10 µM (KDR/VEGFR2; [1]): 104%
% of remaining activity (relative to DMSO) (LCK; listed as Cmp 315): 97.71%
remaining activity at 10 µM (LCK; [1]): 94.9%
% of remaining activity (relative to DMSO) (P38a/MAPK14; listed as Cmp 315): 107.03%
remaining activity at 10 µM (P38a/MAPK14; [1]): 105%
% of remaining activity (relative to DMSO) (PDK1/PDPK1; listed as Cmp 315): 103.28%
remaining activity at 10 µM (PDK1/PDPK1; [1]): 105%
% of remaining activity (relative to DMSO) (PIM3; listed as Cmp 315): 57.54%
remaining activity at 10 µM (PIM3; [1]): 60.6%
% of remaining activity (relative to DMSO) (PKA; listed as Cmp 315): 112.40%
remaining activity at 10 µM (PKA; [1]): 116%
% of remaining activity (relative to DMSO) (PKCb2; listed as Cmp 315): 110.56%
remaining activity at 10 µM (PKCb2; [1]): 112%
% of remaining activity (relative to DMSO) (RIPK2; listed as Cmp 315): 90.19%
remaining activity at 10 µM (RIPK2; [1]): 93.4%
% of remaining activity (relative to DMSO) (ROCK1; listed as Cmp 315): 90.20%
remaining activity at 10 µM (ROCK1; [1]): 93.4%
% of remaining activity (relative to DMSO) (TNIK; listed as Cmp 315): 101.11%
remaining activity at 10 µM (TNIK; [1]): 101%
% of remaining activity (relative to DMSO) (YES/YES1; listed as Cmp 315): 99.08%
remaining activity at 10 µM (YES/YES1; [1]): 99%
% of remaining activity (relative to DMSO) (c-Src; listed as Cmp 315): 101.24%
remaining activity at 10 µM (c-Src; [1]): 104%
SMILES: COc1ccc(C=C2N=C(c3cccs3)OC2=O)cc1 [Comparative Compound 315, 4-((4-methoxyphenyl)methylene)-2-(2-thienyl)-5(4H)-oxalone]
